Data from patent US12268676B2, “Antiviral applications of picolinic acid and its derivatives” (INDIAN INSTITUTE OF SCIENCE, priority 2021, dated 2025).

Tested on: SARS-CoV-2 variants of concern (Alpha, Beta, Gamma, Delta)
Assay type: cell-based

How did the “viral load abrogated by” value turn out when `O=C(O)c1ccccn1` [PA, pyridine-2-carboxylic acid] was run?
Its value is about 1 log.
